# From paper PMC13021292, “Safety, tolerability and pharmacokinetics of DNDI‐6148, a novel agent for leishmaniasis: A randomized, controlled, single ascending dose study in healthy participants” (British Journal of Clinical Pharmacology, 2025)
# Assay: Plasma pharmacokinetics, first-in-human single ascending oral dose study
# Method: This was a FIH, phase I, double‐blind, parallel, single ascending dose (SAD) study of DNDI‐6148 arginine monohydrate, administered as an oral suspension to healthy male participants. Cohorts 1–8 each included eight participants and were administered 10, 20, 40, 80, 160, 220, 300 or 380 mg (free form) of DNDI‐6148 (in six participants) or placebo (two participants).
# At the clinical site, a suspension was prepared extemporaneously by the pharmacist within 24 h prior to administration to participants (the timepoint for which stability data of the suspension were available). The IP powder was suspended in 30 mL ORA‐Sweet® (Paddock Laboratories, LLC, Minneapolis, USA) for taste and colour masking. Participants were administered between 4 and 25 mL of the suspensions, followed by the ingestion of 250 mL tap water. Opaque precision syringes were used to administer the solutions to minimize the risk of unblinding. To preclude any dietary effects on the PK of DNDI‐6148, participants fasted for 9 h before they received the IP or placebo. Treatments were administered under the supervision of the investigator at approximately 8 a.m. on Day 1.
# Blood samples (6 mL per time point) for pharmacokinetic analyses were collected on Day 1 pre‐dose and at the following post‐dose time points: 0.5,1, 1.5 (cohorts 1–4 only), 2, 2.5, 3, 4, 5 (cohorts 5–8 only), 6, 9, 12, 24, 48 and 72 h. […] Within 30 min of blood collection, blood samples were centrifuged at 1500g for 10 min at 4 °C and 500 μL of plasma were transferred into pre‐labelled polypropylene tubes prefilled with phosphoric acid 2% (1:1, v:v). Tubes were capped immediately for each time point, and the plasma was frozen in an upright position at −80 °C for storage.
# Concentrations of DNDI‐6148 were determined in acidified plasma and acidified urine/BSA mixture using a validated internally standardized liquid chromatography–tandem mass spectrometry (LC–MS/MS) assay with deuterated d4‐DNDI‐6148 as an internal standard. The lower limit of quantitation (LOQ) for DNDI‐6148 was 1 ng/mL in plasma and 10 ng/mL in urine.
# Values that were below the LOQ before the first concentration equal or above LOQ were set to zero. Other values below the LOQ were not used to calculate the PK parameters. The area under the plasma concentration‐time curve from time zero (pre‐dose) to the time of last quantifiable concentration (AUC0‐last) was calculated using the linear‐log trapezoidal rule. Elimination half‐life (t1/2) was calculated by the equation ln2/λz, after visual inspection of the plasma concentration‐time profiles (considering a minimum of 3 data points, including the last measurable data point and excluding Cmax).
# PK parameters were derived from plasma concentration vs. time data using non‐compartmental analysis in Phoenix WinNonlin® 8.1 (Certara Inc., Princeton, NJ, USA). Plasma concentration vs. time data and PK parameters were listed and summarized by dose level, using descriptive statistics. Mean concentrations were calculated only if at least ⅔ of the individual concentrations were above the lower LOQ (LLOQ). […] Planned sampling times were used to summarize plasma concentration data; actual sampling times were used in the derivation of PK parameters.
structure (smiles),measurement,setting,value
Cc1c(C(=O)Nc2ccc3c(c2)B(O)OC3)nnn1-c1ccccn1 [DNDI‐6148],t1/2,"10 mg single oral dose, Mean",12.93 h
same,tmax,"10 mg single oral dose, Mean",4 h
same,CL/F,"20 mg single oral dose, GM",2.76 L/h
same,Cmax,"20 mg single oral dose, GM",292 ng/mL
same,Vd/F,"20 mg single oral dose, GM",57.51 L
same,t1/2,"20 mg single oral dose, GM",14.42 h
same,CL/F,"20 mg single oral dose, Mean",2.84 L/h
same,Cmax,"20 mg single oral dose, Mean",296 ng/mL
same,Vd/F,"20 mg single oral dose, Mean",57.82 L
same,t1/2,"20 mg single oral dose, Mean",14.73 h
same,tmax,"20 mg single oral dose, Mean",4 h
same,CL/F,"40 mg single oral dose, GM",2.17 L/h
same,Cmax,"40 mg single oral dose, GM",585 ng/mL
same,Vd/F,"40 mg single oral dose, GM",61.18 L
same,t1/2,"40 mg single oral dose, GM",19.52 h
same,CL/F,"40 mg single oral dose, Mean",2.36 L/h
same,Cmax,"40 mg single oral dose, Mean",598 ng/mL
same,Vd/F,"40 mg single oral dose, Mean",64.01 L
same,t1/2,"40 mg single oral dose, Mean",19.91 h
same,tmax,"40 mg single oral dose, Mean",5 h
same,CL/F,"80 mg single oral dose, GM",2.17 L/h
same,Cmax,"80 mg single oral dose, GM",1011 ng/mL
same,Vd/F,"80 mg single oral dose, GM",69.86 L
same,t1/2,"80 mg single oral dose, GM",22.31 h
same,CL/F,"80 mg single oral dose, Mean",2.51 L/h
same,Cmax,"80 mg single oral dose, Mean",1021 ng/mL
same,Vd/F,"80 mg single oral dose, Mean",71.15 L
same,t1/2,"80 mg single oral dose, Mean",25.43 h
same,tmax,"80 mg single oral dose, Mean",9 h
same,CL/F,"160 mg single oral dose, GM",2.65 L/h
same,Cmax,"160 mg single oral dose, GM",1815.3 ng/mL
same,Vd/F,"160 mg single oral dose, GM",68.6 L
same,t1/2,"160 mg single oral dose, GM",17.92 h
same,CL/F,"160 mg single oral dose, Mean",2.83 L/h
same,Cmax,"160 mg single oral dose, Mean",1825.3 ng/mL
same,Vd/F,"160 mg single oral dose, Mean",70.79 L
same,t1/2,"160 mg single oral dose, Mean",18.28 h
same,tmax,"160 mg single oral dose, Mean",5 h
same,CL/F,"220 mg single oral dose, GM",2.42 L/h
same,Cmax,"220 mg single oral dose, GM",2285.4 ng/mL
same,Vd/F,"220 mg single oral dose, GM",80.62 L
same,t1/2,"220 mg single oral dose, GM",23.10 h
same,Cmax,"220 mg single oral dose, Mean",2512.3 ng/mL
same,Vd/F,"220 mg single oral dose, Mean",81.32 L
same,t1/2,"220 mg single oral dose, Mean",24.17 h
same,tmax,"220 mg single oral dose, Mean",5.50 h
same,CL/F,"300 mg single oral dose, GM",3.02 L/h
same,Cmax,"300 mg single oral dose, GM",2959.3 ng/mL
same,Vd/F,"300 mg single oral dose, GM",99.99 L
same,t1/2,"300 mg single oral dose, GM",22.91 h
same,tmax,"300 mg single oral dose, GM",5.12 h
same,CL/F,"300 mg single oral dose, Mean",3.28 L/h
same,Cmax,"300 mg single oral dose, Mean",3073.5 ng/mL
same,Vd/F,"300 mg single oral dose, Mean",104.45 L
same,t1/2,"300 mg single oral dose, Mean",23.39 h
same,tmax,"300 mg single oral dose, Mean",5.00 h
same,CL/F,"380 mg single oral dose, GM",2.22 L/h
same,Cmax,"380 mg single oral dose, GM",3487.2 ng/mL
same,Vd/F,"380 mg single oral dose, GM",79.44 L
same,t1/2,"380 mg single oral dose, GM",24.76 h
same,tmax,"380 mg single oral dose, GM",5.28 h
same,CL/F,"380 mg single oral dose, Mean",2.26 L/h
same,Cmax,"380 mg single oral dose, Mean",3606 ng/mL
same,Vd/F,"380 mg single oral dose, Mean",79.82 L
same,t1/2,"380 mg single oral dose, Mean",25.46 h
same,tmax,"380 mg single oral dose, Mean",5.50 h
same,GM half‐life in plasma,10 and 20 mg doses,around 13 h
same,"median tmax, generally",all dose levels,4 to 6 h
same,GM half‐life in plasma,higher doses,around 20 h
